Results from the NIST ThermoML archive (doi:10.1021/je700308j).
Several values for one entry are separate records, joined by “and”; a condition that tells them apart may be missing. Equal values may be shown once.

Key:
[1] = excess molar enthalpy (molar enthalpy of mixing); xn = mol fraction of the nth substance listed; conditions: 101 kPa, Liquid, Flow calorimetry
[2] = xn = mol fraction of the nth substance listed; conditions: 298.15 K, 101 kPa, Liquid
[3] = heat capacity at constant pressure per volume; xn = mol fraction of the nth substance listed; conditions: 298.15 K, 101 kPa, Liquid, Flow calorimetry

C1CCCC1 [cyclopentane] + CCCCCCCCCCO
excess molar enthalpy, [1]
Conditions | x1 = 0.336 | x1 = 0.465 | x1 = 0.575 | x1 = 0.67 | x1 = 0.752 | x1 = 0.89 | x1 = 0.975
298.15 K | 0.0786 kcal/mol and 0.0778 kcal/mol | 0.0965 kcal/mol | 0.104 kcal/mol | 0.105 kcal/mol | 0.101 kcal/mol | 0.0851 kcal/mol | –
298.65 K | – | – | – | – | – | – | 0.0495 kcal/mol

C1CCCC1 [cyclopentane] + CCCCCCCCCO
[1], 298.15 K
Conditions | excess molar enthalpy [kcal/mol]
x1 = 0.171 | 0.0418
x1 = 0.316 | 0.0712
x1 = 0.442 | 0.091
x1 = 0.552 | 0.101
x1 = 0.649 | 0.104
x1 = 0.735 | 0.102
x1 = 0.812 | 0.0962
x1 = 0.881 | 0.0862
x1 = 0.943 | 0.07
x1 = 0.972 | 0.0548

C1CCCC1 [cyclopentane] + CCCCCCCCO
[1], 298.15 K
Conditions | excess molar enthalpy [kcal/mol]
x1 = 0.157 | 0.0349
x1 = 0.295 | 0.0632
x1 = 0.418 | 0.0844
x1 = 0.528 | 0.0971
x1 = 0.626 | 0.104
x1 = 0.715 | 0.105
x1 = 0.796 | 0.0987
x1 = 0.87 | 0.0889
x1 = 0.938 | 0.0725
x1 = 0.97 | 0.0576

C1CCCC1 [cyclopentane] + CCCCCCCO
[1], 298.15 K
Conditions | excess molar enthalpy
x1 = 0.143 | 0.0296 kcal/mol
x1 = 0.273 | 0.0554 kcal/mol
x1 = 0.392 | 0.0786 kcal/mol
x1 = 0.5 | 0.0937 kcal/mol
x1 = 0.6 | 0.104 kcal/mol
x1 = 0.692 | 0.106 kcal/mol
x1 = 0.778 | 0.102 kcal/mol
x1 = 0.857 | 0.0921 kcal/mol and 0.0923 kcal/mol
x1 = 0.931 | 0.075 kcal/mol
x1 = 0.966 | 0.0603 kcal/mol

C1CCCC1 [cyclopentane] + CCCCCCO
[1], 298.15 K
Conditions | excess molar enthalpy
x1 = 0.128 | 0.0277 kcal/mol
x1 = 0.249 | 0.0484 kcal/mol
x1 = 0.362 | 0.0707 kcal/mol
x1 = 0.469 | 0.0894 kcal/mol and 0.0897 kcal/mol
x1 = 0.57 | 0.102 kcal/mol
x1 = 0.665 | 0.108 kcal/mol
x1 = 0.756 | 0.105 kcal/mol
x1 = 0.841 | 0.0954 kcal/mol
x1 = 0.923 | 0.0778 kcal/mol
x1 = 0.962 | 0.0619 kcal/mol

C1CCCC1 [cyclopentane] + CCCCCO
[1], 298.15 K
Conditions | excess molar enthalpy [kcal/mol]
x1 = 0.113 | 0.0229
x1 = 0.223 | 0.0451
x1 = 0.33 | 0.0674
x1 = 0.434 | 0.0882
x1 = 0.535 | 0.105
x1 = 0.633 | 0.115
x1 = 0.728 | 0.115
x1 = 0.821 | 0.105
x1 = 0.912 | 0.0849
x1 = 0.956 | 0.0674

C1CCCC1 [cyclopentane] + CCCCO
[1], 298.15 K
Conditions | excess molar enthalpy
x1 = 0.098 | 0.022 kcal/mol
x1 = 0.196 | 0.0427 kcal/mol
x1 = 0.294 | 0.0637 kcal/mol
x1 = 0.393 | 0.0857 kcal/mol and 0.0846 kcal/mol
x1 = 0.493 | 0.104 kcal/mol
x1 = 0.593 | 0.118 kcal/mol
x1 = 0.694 | 0.124 kcal/mol
x1 = 0.796 | 0.116 kcal/mol
x1 = 0.897 | 0.0941 kcal/mol
x1 = 0.949 | 0.0739 kcal/mol

CCCCCCCCCCO [decan-1-ol] + C1CCOC1
Conditions | heat capacity, [3] [J/K/m3] | mass density, [2] [kg/m3]
x2 = 0.0904 | 1904000 | 828.17
x2 = 0.2067 | 1869000 | 831.12
x2 = 0.3967 | 1810000 | 837.35
x2 = 0.5985 | 1734000 | 846.59
x2 = 0.7992 | 1635000 | 860.14
x2 = 0.8981 | 1573000 | 869.46

CCCCCCCO [heptan-1-ol] + C1CCOC1
Conditions | heat capacity, [3] [J/K/m3] | mass density, [2] [kg/m3]
x2 = 0.1103 | 1888000 | 822.54
x2 = 0.2085 | 1859000 | 826.55
x2 = 0.3123 | 1827000 | 831.18
x2 = 0.4046 | 1797000 | 835.76
x2 = 0.496 | 1765000 | 840.88
x2 = 0.5973 | 1725000 | 847.05
x2 = 0.6977 | 1680000 | 854.06
x2 = 0.8031 | 1627000 | 862.49
x2 = 0.9021 | 1572000 | 871.51

CCCCCCO [hexan-1-ol] + C1CCOC1
Conditions | heat capacity, [3] [J/K/m3] | mass density, [2] [kg/m3]
x2 = 0.1191 | 1886000 | 820.48
x2 = 0.1994 | 1862000 | 824.38
x2 = 0.3032 | 1829000 | 829.77
x2 = 0.3931 | 1800000 | 834.74
x2 = 0.505 | 1759000 | 841.56
x2 = 0.6028 | 1719000 | 848.03
x2 = 0.6944 | 1678000 | 854.68
x2 = 0.7937 | 1628000 | 862.57
x2 = 0.8961 | 1574000 | 871.63

CCCCCCCCCO [nonan-1-ol] + C1CCOC1
[2]
Conditions | mass density [kg/m3]
x2 = 0.1048 | 827.19
x2 = 0.1889 | 829.58
x2 = 0.3131 | 833.79
x2 = 0.4067 | 837.47
x2 = 0.504 | 841.9
x2 = 0.6004 | 847.05
x2 = 0.7009 | 853.33
x2 = 0.7999 | 860.89
x2 = 0.9015 | 870.34
